In US9409866B2, “Pyridine-2-amides useful as CB2 agonists” (Hoffmann-La Roche Inc., priority 2012, dated 2016):

Experiments:
human CB1 receptors = human CB1 receptors (Homo sapiens (Human), UniProt P21554); assay: functional cAMP assay, CHO cells expressing human CB1; type: cell-based; conditions: functional cAMP assay, CHO cells expressing human CB1; read-out: Human CB1 EC50
Procedure, shortened: (§1)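 Readout: TR-FRET cAMP detection at 730 and 645 nm with 355 nm excitation, quantified from a standard curve spanning 10 μM to 0.13 nM cAMP. Human CB1- or CB2-expressing CHO cells were exposed to compound for 30 min at 30 °C in KRB buffer containing 1 mM IBMX. EC50 derived.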

human CB2 receptors = human CB2 receptors (Homo sapiens (Human), UniProt P34972); assay: functional cAMP assay, CHO cells expressing human CB2; type: cell-based; conditions: read-out: Human CB2 EC50
Procedure, shortened: as §1

Chain of human CB1 receptors (P21554 whole entry): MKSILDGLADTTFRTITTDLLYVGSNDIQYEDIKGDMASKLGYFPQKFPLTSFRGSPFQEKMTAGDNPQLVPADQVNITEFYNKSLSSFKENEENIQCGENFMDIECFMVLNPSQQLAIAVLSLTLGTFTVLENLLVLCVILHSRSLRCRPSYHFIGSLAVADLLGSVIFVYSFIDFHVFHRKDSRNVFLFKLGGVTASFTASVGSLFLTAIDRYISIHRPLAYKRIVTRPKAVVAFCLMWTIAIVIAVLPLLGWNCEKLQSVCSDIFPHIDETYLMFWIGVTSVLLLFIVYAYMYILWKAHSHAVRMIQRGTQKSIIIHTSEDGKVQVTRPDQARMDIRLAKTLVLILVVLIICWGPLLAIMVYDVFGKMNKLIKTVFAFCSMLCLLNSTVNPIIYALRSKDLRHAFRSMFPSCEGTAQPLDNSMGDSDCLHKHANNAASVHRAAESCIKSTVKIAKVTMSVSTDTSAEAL
Chain of human CB2 receptors (P34972 whole entry): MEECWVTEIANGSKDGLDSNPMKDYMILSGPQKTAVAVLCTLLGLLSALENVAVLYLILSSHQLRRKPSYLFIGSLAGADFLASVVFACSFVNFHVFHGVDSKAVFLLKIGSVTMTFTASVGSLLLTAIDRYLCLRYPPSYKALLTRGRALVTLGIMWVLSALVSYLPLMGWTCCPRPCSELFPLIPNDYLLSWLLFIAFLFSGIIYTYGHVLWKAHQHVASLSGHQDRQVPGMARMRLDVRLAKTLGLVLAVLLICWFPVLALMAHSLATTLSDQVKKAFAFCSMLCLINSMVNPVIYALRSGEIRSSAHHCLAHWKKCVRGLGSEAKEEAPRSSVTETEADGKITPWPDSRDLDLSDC

Row | SMILES | EC50 (human CB1 receptors) [µM] | EC50 (human CB2 receptors) [nM]
1 | Cc1nc(C(C)(CC2CC2)NC(=O)c2cc(O[C@@H](C)C(F)(F)F)c(C3CCC3)cn2)no1 (stereo partly drawn) [Example 110, 5-Cyclobutyl-4-((S)-2,2,2-trifluoro-1-methyl-ethoxy)-pyridine-2-carboxylic acid [2-cyclopropyl-1-methyl-1-(5-methyl-[1,2,4]oxadiazol-3-yl)-ethyl]-amide] | 0.31 | 0.8
2 | Cc1nc(C(C)(CS(C)(=O)=O)NC(=O)c2cc(O[C@@H](C)C(F)(F)F)c(C3CCC3)cn2)no1 (stereo partly drawn) [Example 111, 5-Cyclobutyl-4-((S)-2,2,2-trifluoro-1-methyl-ethoxy)-pyridine-2-carboxylic acid [2-methanesulfonyl-1-methyl-1-(5-methyl-[1,2,4]oxadiazol-3-yl)-ethyl]-amide] | 0.43 | 3
3 | Cc1nc(C(C)(COCc2ccccc2)NC(=O)c2cc(OCC(F)(F)F)c(C3CC3)cn2)no1 (stereo not drawn) [Example 112, 5-cyclopropyl-N-[2-(5-methyl-1,2,4-oxadiazol-3-yl)-1-phenylmethoxypropan-2-yl]-4-(2,2,2-trifluoroethoxy)pyridine-2-carboxamide] | > 10 | 43.6
4 | Cc1nc(C(C)(CO)NC(=O)c2cc(OCC(F)(F)F)c(C3CC3)cn2)no1 (stereo not drawn) [Example 113, 5-cyclopropyl-N-[1-hydroxy-2-(5-methyl-1,2,4-oxadiazol-3-yl)propan-2-yl]-4-(2,2,2-trifluoroethoxy)pyridine-2-carboxamide] | > 10 | 263
5 | NC(=O)[C@@H]1CC(F)(F)CN1C(=O)c1cc(OCC2CC2)c(C2CC2)cn1 [Example 114, (2S)-1-[5-cyclopropyl-4-(cyclopropylmethoxy)pyridine-2-carbonyl]-4,4-difluoropyrrolidine-2-carboxamide] | > 10 | 1000
6 | NC(=O)[C@@H]1CC(F)(F)CN1C(=O)c1cc(OCC(F)(F)F)c(C2CC2)cn1 [Example 115, (2S)-1-[5-cyclopropyl-4-(2,2,2-trifluoroethoxy)pyridine-2-carbonyl]-4,4-difluoropyrrolidine-2-carboxamide] | > 10 | 1260
7 | Cc1nc(C(C)(CS(C)(=O)=O)NC(=O)c2cc(O[C@@H](C)C(F)(F)F)c(C3CCC3)cn2)no1 (stereo partly drawn) [Example 118, 5-cyclobutyl-N-[2-(5-methyl-1,2,4-oxadiazol-3-yl)-1-methylsulfonylpropan-2-yl]-4-[(2S)-1,1,1-trifluoropropan-2-yl]oxypyridine-2-carboxamide] | > 10 | 1.7
8 | Cc1nc(C(C)(CS(C)(=O)=O)NC(=O)c2cc(O[C@@H](C)C(F)(F)F)c(C3CCC3)cn2)no1 (stereo partly drawn) [Example 119, 5-cyclobutyl-N-[2-(5-methyl-1,2,4-oxadiazol-3-yl)-1-methylsulfonylpropan-2-yl]-4-[(2S)-1,1,1-trifluoropropan-2-yl]oxypyridine-2-carboxamide] | > 10 | 9.1
9 | Cc1nc(C(C)(CC2CC2)NC(=O)c2cc(O[C@@H](C)C(F)(F)F)c(C3CCC3)cn2)no1 (stereo partly drawn) [Example 120, 5-cyclobutyl-N-[1-cyclopropyl-2-(5-methyl-1,2,4-oxadiazol-3-yl)propan-2-yl]-4-[(2S)-1,1,1-trifluoropropan-2-yl]oxypyridine-2-carboxamide] | > 10 | 0.8
10 | Cc1nc(C(C)(CC2CC2)NC(=O)c2cc(O[C@@H](C)C(F)(F)F)c(C3CCC3)cn2)no1 (stereo partly drawn) [Example 121, 5-cyclobutyl-N-[1-cyclopropyl-2-(5-methyl-1,2,4-oxadiazol-3-yl)propan-2-yl]-4-[(2S)-1,1,1-trifluoropropan-2-yl]oxypyridine-2-carboxamide] | > 10 | 0.6
11 | NC(=O)[C@H]1CC(F)(F)CN1C(=O)c1cc(OCC(F)(F)F)c(C2CC2)cn1 [Example 122, (2R)-1-[5-cyclopropyl-4-(2,2,2-trifluoroethoxy)pyridine-2-carbonyl]-4,4-difluoropyrrolidine-2-carboxamide] | > 10 | 399
12 | Cc1nc(C(C)(CC2CC2)NC(=O)c2cc(OCC(F)(F)F)c(C3(O)COC3)cn2)no1 (stereo not drawn) [Example 123, N-[1-cyclopropyl-2-(5-methyl-1,2,4-oxadiazol-3-yl)propan-2-yl]-5-(3-hydroxyoxetan-3-yl)-4-(2,2,2-trifluoroethoxy)pyridine-2-carboxamide] | > 10 | 998
13 | Cc1nc(C(C)(CS(C)(=O)=O)NC(=O)c2cc(O[C@@H](C)C(F)(F)F)c(C3(O)CCC3)cn2)no1 (stereo partly drawn) [Example 126, 5-(1-hydroxycyclobutyl)-N-[2-(5-methyl-1,2,4-oxadiazol-3-yl)-1-methylsulfonylpropan-2-yl]-4-[(2S)-1,1,1-trifluoropropan-2-yl]oxypyridine-2-carboxamide] | > 10 | 219
14 | Cc1nc(C(C)(CS(C)(=O)=O)NC(=O)c2cc(OCC(F)(F)F)c(C3=CCC3)cn2)no1 (stereo not drawn) [Example 127, 5-(cyclobuten-1-yl)-N-[2-(5-methyl-1,2,4-oxadiazol-3-yl)-1-methylsulfonylpropan-2-yl]-4-(2,2,2-trifluoroethoxy)pyridine-2-carboxamide] | > 10 | 19.6
15 | Cc1nc(C(C)(CN2CC(F)(F)C2)NC(=O)c2cc(OCC(F)(F)F)c(C3CC3)cn2)no1 (stereo not drawn) [Example 128, 5-cyclopropyl-N-[1-(3,3-difluoroazetidin-1-yl)-2-(5-methyl-1,2,4-oxadiazol-3-yl)propan-2-yl]-4-(2,2,2-trifluoroethoxy)pyridine-2-carboxamide] | > 10 | 65.3
16 | Cc1nc(C(C)(CS(C)(=O)=O)NC(=O)c2cc(OCC(F)(F)F)c(C3(O)CCC3)cn2)no1 (stereo not drawn) [Example 129, 5-(1-hydroxycyclobutyl)-N-[2-(5-methyl-1,2,4-oxadiazol-3-yl)-1-methylsulfonylpropan-2-yl]-4-(2,2,2-trifluoroethoxy)pyridine-2-carboxamide] | > 10 | 1090
17 | Cc1nc(C(C)(CS(C)(=O)=O)NC(=O)c2cc(O[C@@H](C)C(F)(F)F)c(C3(F)CCC3)cn2)no1 (stereo partly drawn) [Example 130, 5-(1-fluorocyclobutyl)-N-[2-(5-methyl-1,2,4-oxadiazol-3-yl)-1-methylsulfonylpropan-2-yl]-4-[(2S)-1,1,1-trifluoropropan-2-yl]oxypyridine-2-carboxamide] | > 10 | 23.4
18 | Cc1nc(C(C)(CC2CC2)NC(=O)c2cc(OCC(F)(F)F)c(C3(F)COC3)cn2)no1 (stereo not drawn) [Example 131, N-[1-cyclopropyl-2-(5-methyl-1,2,4-oxadiazol-3-yl)propan-2-yl]-5-(3-fluorooxetan-3-yl)-4-(2,2,2-trifluoroethoxy)pyridine-2-carboxamide] | > 10 | 26.3
19 | CC(CS(C)(=O)=O)(NC(=O)c1cc(OCC(F)(F)F)c(C2CC2)cn1)C(N)=O (stereo not drawn) [Example 134, N-(1-amino-2-methyl-3-methylsulfonyl-1-oxopropan-2-yl)-5-cyclopropyl-4-(2,2,2-trifluoroethoxy)pyridine-2-carboxamide] | > 10 | 888
20 | Cc1nc(C(C)(CS(C)(=O)=O)NC(=O)c2cc(O[C@@H](C)C(F)(F)F)c(C3(F)CCC3)cn2)no1 (stereo partly drawn) [Example 137, 5-(1-fluorocyclobutyl)-N-[2-(5-methyl-1,2,4-oxadiazol-3-yl)-1-methylsulfonylpropan-2-yl]-4-[(2S)-1,1,1-trifluoropropan-2-yl]oxypyridine-2-carboxamide] | > 10 | 10.5
21 | Cc1nc(C(C)(CS(C)(=O)=O)NC(=O)c2cc(O[C@@H](C)C(F)(F)F)c(C3(F)CCC3)cn2)no1 (stereo partly drawn) [Example 138, 5-(1-fluorocyclobutyl)-N-[2-(5-methyl-1,2,4-oxadiazol-3-yl)-1-methylsulfonylpropan-2-yl]-4-[(2S)-1,1,1-trifluoropropan-2-yl]oxypyridine-2-carboxamide] | > 10 | 21.7
22 | Cc1nc(C(C)(NC(=O)c2cc(OCC(F)(F)F)c(C3(F)COC3)cn2)C2CC2)no1 (stereo not drawn) [Example 139, N-[1-cyclopropyl-1-(5-methyl-1,2,4-oxadiazol-3-yl)ethyl]-5-(3-fluorooxetan-3-yl)-4-(2,2,2-trifluoroethoxy)pyridine-2-carboxamide] | > 10 | 0.6
23 | Cc1nc(C(C)(CC2CC2)NC(=O)c2cc(O[C@@H](C)C(F)(F)F)c(C3(F)COC3)cn2)no1 (stereo partly drawn) [Example 142, N-[1-cyclopropyl-2-(5-methyl-1,2,4-oxadiazol-3-yl)propan-2-yl]-5-(3-fluorooxetan-3-yl)-4-[(2S)-1,1,1-trifluoropropan-2-yl]oxypyridine-2-carboxamide] | > 10 | 4.1
24 | C[C@H](Oc1cc(C(=O)NC(C)(C#N)CC2CC2)ncc1C1(F)COC1)C(F)(F)F (stereo partly drawn) [Example 143, N-(2-cyano-1-cyclopropylpropan-2-yl)-5-(3-fluorooxetan-3-yl)-4-[(2S)-1,1,1-trifluoropropan-2-yl]oxypyridine-2-carboxamide] | > 10 | 246
25 | Cc1nc(C(C)(NC(=O)c2cc(O[C@@H](C)C(F)(F)F)c(C3(F)COC3)cn2)C2CC2)no1 (stereo partly drawn) [Example 144, N-[1-cyclopropyl-1-(5-methyl-1,2,4-oxadiazol-3-yl)ethyl]-5-(3-fluorooxetan-3-yl)-4-[(2S)-1,1,1-trifluoropropan-2-yl]oxypyridine-2-carboxamide] | > 10 | 14.1
26 | Cc1nc(C(C)(CC2CC2)NC(=O)c2cc(OCC(F)F)c(C3CC3)cn2)no1 (stereo not drawn) [Example 145, 5-cyclopropyl-N-[1-cyclopropyl-2-(5-methyl-1,2,4-oxadiazol-3-yl)propan-2-yl]-4-(2,2-difluoroethoxy)pyridine-2-carboxamide] | > 10 | 3.4
27 | Cc1nc(C(C)(CC2CC2)NC(=O)c2cc(OCCF)c(C3CC3)cn2)no1 (stereo not drawn) [Example 146, 5-cyclopropyl-N-[1-cyclopropyl-2-(5-methyl-1,2,4-oxadiazol-3-yl)propan-2-yl]-4-(2-fluoroethoxy)pyridine-2-carboxamide] | > 10 | 1.8
